Data on 3 compounds can be found in EP0545103A1, “Insecticidal, acaricidal and molluscicidal 1-(substituted) thioalkylpyrroles” (priority 1991, dated 1993).

One test concerns Plasmopara viticola. Put plainly: In vivo fungicidal activity, Grape Downy Mildew (GDM). The following applies: rate 400 ppm, rating, averaged. As to the method: (§1) Test compounds are dissolved in acetone and diluted with deionized water containing about 0.05% TWEEN 20®, a polyoxyethylene sorbitan monolaurate surfactant manufactured by Atlas Chemical Industries, to give a concentration of 400 ppm. Subsequent dilutions are made with an 0.05% aqueous solution of TWEEN 20®.
(§2) Host plants are sprayed with test solution, dried and inoculated with fungi. When disease symptom development is optimal, the plants are rated for disease control according to the rating scale shown below. Each test contains inoculated treated plants, inoculated untreated plants and a reference standard.
(§3) When more than one test is run, the data are averaged.

In the next test the test system is Cercospora beticola. Briefly: In vivo fungicidal activity, Sugarbeet Cercospora (SBC). To be noted: rate 400 ppm, rating, averaged. As to the method: as §1, §2, §3
Test [1] concerns Spodoptera eridania, 3rd instar larvae, southern armyworm. Briefly: Southern armyworm 3rd instar test, dipped limabean leaf. The test is classed as in vivo. The following applies: 1000 ppm. Summed up: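 Compound dissolved in 35% acetone/water at 10,000 ppm stock, diluted with water. Sieva limabean leaves dipped 3 s, dried, and exposed to ten 3rd instar larvae on damp filter paper. Mortality, reduced feeding and molting interference scored at 3 and 5 days on a rating scale.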

Test [2] concerns Puccinia recondita, tritici. Put plainly: In vivo fungicidal activity, Wheat Leaf Rust (WLR). The following applies: rate 400 ppm, rating, averaged. As to the method: as §1, §2, §3
Test [3] has as its system Erysiphe graminis, tritici. Briefly: In vivo fungicidal activity, Wheat Powdery Mildew (WPM). The following applies: rating, averaged. As to the method: as §1, §2, §3
Another test has as its system Venturia inaequalis. Briefly: In vivo fungicidal activity, Apple Scab (AS). The following applies: rate 400 ppm, host plants sprayed then inoculated, rating, averaged. As to the method: as §1, §2, §3
The next test has as its system Pythium ultimum. Put plainly: In vitro fungicidal activity, mycelial growth inhibition on agar (Pyth). The test is classed as cell-based. To be noted: Globisporangium ultimum, 48 h, two days. As to the method: (§4) Test compounds are dissolved in acetone, diluted with sterile, deionized water and mixed with a partially cooled, autoclaved, chemically defined agar medium. This mixture is poured into several 100mm x 15mm sterile plastic plates and allowed to solidify. The surface of each plate is inoculated with a single disc of mycelium and agar cut with an 8mm diameter cork borer from actively growing cultures of assay fungi on a chemically defined agar medium. The plates are incubated at room temperature. Growth inhibition is determined when the mycelial growth on unamended control media has reached the edge of the petri plates. The time interval varies depending on the growth rate of the fungus; two days for Pythium ultimum (pyth) and Rhizoctonia solani (Rhiz) , five days for Botrytis cinerea (Betry) and 7-10 days for Pseudocercosporella herpotrichoides (Pseudo). Each colony diameter is measured and compared with the untreated control and the percent inhibition is calculated as follows: [formula] Each test includes a solvent blank consisting of the formulation without a test compound in addition to the untreated control.
(§5) Assay fungi include the plant pathogens, Pythium ultimum (Pyth) and Rhizoctonia solani (Rhiz).
(§6) When more than one test is run the data are averaged.

In test [4] the test system is Diabrotic undecimpunctata howardi, 3rd instar southern corn rootworm. Briefly: Southern corn rootworm soil test. More on the design: key: 0: no effect; 10-25% kill; 26-35% kill; 36-45% kill; 46-55% kill; 56-65% kill; 66-75% kill; 76-85% kill; 86-99% kill; 9: 100% kill. The following applies: 50 (ppm as headed), mortality rating after 6 days. It is filed as in vivo. The method, boiled down: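 Compound applied in acetone to talc at 1.25 and 0.25 mg active ingredient per jar (about 50 and 10 kg/ha), dried, then mixed with millet seed and moist soil. Ten 3rd instar larvae added per jar; mortality counted at 6 days, with missing larvae scored dead. Results rated on a scale.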

A further test has as its system Rhizoctonia solani. Put plainly: In vitro fungicidal activity, mycelial growth inhibition on agar (Rhiz). The test is classed as cell-based. The following applies: 48 h, two days. As to the method:
as §4, §5, §6

The test system of test [5] is Heliothis virescens, 3rd instar tobacco budworm. Put plainly: Tobacco budworm 3rd instar test, dipped cotton cotyledons. The test is classed as in vivo. More on the design: key: 0: no effect; 10-25% kill; 26-35% kill; 36-45% kill; 46-55% kill; 56-65% kill; 66-75% kill; 76-85% kill; 86-99% kill; 9: 100% kill. The following applies: mortality rating after 3 days. Summed up:
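Cotton cotyledons dipped in compound solution (10,000 ppm stock in 35% aqueous acetone, water dilutions), dried and quartered. One caterpillar per section, ten sections per treatment. After 3 days, mortality and feeding-damage reduction scored on a rating scale.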

In test [6] the test system is Aphis fabae, mixed instar, bean aphid. Briefly: Bean aphid spray test on nasturtium. The test is classed as in vivo. The following applies: 100 ppm; rating scale 0-9. The method, boiled down:
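Compound dissolved at 10,000 ppm in 35% acetone/water, then water-diluted. Nasturtium plants (~5 cm) infested with 100-200 aphids one day before spraying to full coverage on a turntable; mortality estimated after 2 days on a rating scale.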

The subject of test [7] is Tetranychus urticae (OP-resistant strain), 2-spotted spider mite. Briefly: 2-spotted spider mite test, dipped infested limabean plants. More on the design: key: 0: no effect; 10-25% kill; 26-35% kill; 36-45% kill; 46-55% kill; 56-65% kill; 66-75% kill; 76-85% kill; 86-99% kill; 9: 100% kill. The following applies: 300 ppm, rating scale 0-9. The test is classed as in vivo. Summed up: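 Mite-infested Sieva limabean plants (OP-resistant strain, ~100 mites per leaf, transferred ~2 h earlier) dipped 3 s with agitation in compound solution (10,000 ppm stock in 35% acetone/water, diluted with water). Mortality counted at 2 days; egg and nymph mortality assessed at 5 days; rated on a scale.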

For test [8], the system named is Heliothis virescens, egg, tobacco budworm. Put plainly: Tobacco budworm egg test, dipped cotton leaf and eggs. It is filed as in vivo. The following applies: 1000 ppm; mortality rating after 3 days. Summed up:
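Compound dissolved at 10,000 ppm in 35% aqueous acetone, diluted with water. A cotton leaf and a cheesecloth square with roughly 50-100 eggs aged 6-30 h are each dipped for about 3 s, then combined and kept humid. Mortality counted after 3 days and rated on a scale.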

The subject of test [9] is Empoasca abrupta, adult, western potato leafhopper. Briefly: Western potato leafhopper systemic uptake test. It is filed as in vivo. More on the design: key: 0: no effect; 10-25% kill; 26-35% kill; 36-45% kill; 46-55% kill; 56-65% kill; 66-75% kill; 76-85% kill; 86-99% kill; 9: 100% kill. To be noted: 100 ppm; systemic uptake; rating scale 0-9. As to the method:
Empoasca abrupta, adult, western potato leafhopper Systemic Uptake
An emulsion containing 0.1 gm of the test material, 0.2 gm of Emulphor EL-620® emulsifier, 10 mL of acetone and 90 mL of water is prepared and diluted 10-fold with water to give a 100 ppm emulsion. Subsequent 10-fold dilutions are made with water as needed. Sieva limabean plants, with the primary leaves expanded to a length of 7-8 cm, are cut off at least 3 cm above the soil level to avoid contamination with soil bacteria which will cause decay of the stem during the test. The cut stem is placed in the test emulsion and wrapped with a bit of cotton to hold the stem off the bottom of the bottle and to limit evaporation. The treated stem is maintained for 3 days at 27°C to allow the test compound to be taken up into the plant. Following this, one leaf is removed from the plant and placed in a 100 x 10 mm petri dish containing a moist filter paper and about 10 adult leafhoppers as described above. Mortality counts are made after 2 days.
(§7) All of the above tests are rated according to the rating scale shown below.

Test [10] concerns Spodoptera eridania, 3rd instar larvae, southern armyworm. Put plainly: Southern armyworm systemic uptake (stem systemic) test. The test is classed as in vivo. More on the design: key: 0: no effect; 10-25% kill; 26-35% kill; 36-45% kill; 46-55% kill; 56-65% kill; 66-75% kill; 76-85% kill; 86-99% kill; 9: 100% kill. To be noted: cut stem in emulsion 3 days.
Test [11] relates to Empoasca abrupta, adult, western potato leafhopper. Put plainly: Western potato leafhopper contact test, dipped limabean leaf. It is filed as in vivo. More on the design: key: 0: no effect; 10-25% kill; 26-35% kill; 36-45% kill; 46-55% kill; 56-65% kill; 66-75% kill; 76-85% kill; 86-99% kill; 9: 100% kill. The following applies: 100 ppm; contact; rating scale 0-9. As to the method:
Test solutions are prepared by dissolving the test compound in a 35% acetone in water mixture to give a concentration of 10,000 ppm. Subsequent dilutions are made with water as needed.
Empoasca abrupta, adult, western potato leafhopper
A Sieva limabean leaf about 5 cm long is dipped in the test solution for 3 seconds with agitation and placed in a hood to dry. The treated leaf is placed in a 100 x 10 mm petri dish containing a moist filter paper and about 10 adult leafhoppers are added. After 2 days, mortality counts are made.
as §7

The term inhibition denotes the share of the control response that was lost under treatment. As to `N#CSCn1c(Br)c(Br)c(C#N)c1Br` [Example 38, 1-[(cyanothio)methyl]-2,4,5-tribromopyrrole-3-carbonitrile], the “Disease Control GDM” value in the test with Plasmopara viticola was 3.0. For the same compound, in the test with Cercospora beticola, the “Disease Control SBC” value is 0 (0). Besides, the “ARMYWORM Day 3” value in [1] (rating at 3 days) is 9 (100% kill). Further, the “ARMYWORM Day 5” value in test [1] (rating at 5 days) is recorded as 9 (100% kill). Further, the “Disease Control WLR” value in test [2] came to 5.0. In [3] (rate 400 ppm), the “Disease Control WPM” value was 0 (0). Further, in the test with Venturia inaequalis, the “Disease Control AS” value amounted to 2.0. The inhibition at 1 ppm in the test on Pythium ultimum (rate 1 ppm in agar) and with Rhizoctonia solani (rate 1 ppm in agar) was 1.5% each time. Further, the inhibition at 10 ppm came to 4% in the test with Pythium ultimum (rate 10 ppm in agar) and 3.5% with Rhizoctonia solani (rate 10 ppm in agar). Further, the inhibition at 25 ppm in the test with Pythium ultimum (rate 25 ppm in agar) was found to be 4.5%; with Rhizoctonia solani (rate 25 ppm in agar), 5.8%. For the same compound, in test [4], the “SOUTHERN CORN ROOTWORM” value amounted to 0.

`CC(C)OP(=S)(OC(C)C)SCn1c(Br)c(Br)c(C#N)c1Br` [O,O-diisopropyl S-(2,3,5-tribromo-4-cyanopyrrole-1-yl)methyl ester phosphorodithioic acid]: the “Disease Control GDM” value in the test with Plasmopara viticola is recorded as 0 (0). Besides, the “Disease Control SBC” value in the test with Cercospora beticola was 0 (0). Also, the “Disease Control WLR” value in test [2] is listed as 0 (0). In addition, the “Disease Control WPM” value in [3] (rate 25 ppm) is 0 (0); in [3] (rate 100 ppm) it was 4.0; in test [3] (rate 400 ppm), 7.0. In addition, in the test on Venturia inaequalis, the “Disease Control AS” value is reported as 0 (0).

Turning to `CC(=O)SCn1c(Br)c(Br)c(C#N)c1Br` [Example 34], the “TOBACCO BUDWORM 3rd Instar” value in test [5] (100 ppm) is reported as 0; in test [5] (1000 ppm) it was 9 (100% kill). The APHIDS in test [6] is listed as 8 (86-99% kill). In addition, in test [7] (adult mites), the “OP-RESISTANT MITES Adult” value was determined as 0. In addition, in [7] (mite eggs), the “OP-RESISTANT MITES Egg” value is on record as 0. The “OP-RESISTANT MITES Nymph” value in [7] (mite nymphs) was 0. Also, the “TOBACCO BUDWORM Egg” value in test [8] is 8 (86-99% kill). For the same compound, the “LEAFHOPPER Systemic” value in [9] was 0. The “ARMYWORM Stem Sys” value in test [10] came out at 0. In addition, the “SOUTHERN CORN ROOTWORM” value in test [4] is on record as 0. Also, the “LEAFHOPPER Contact” value in [11] was found to be 0.
